Source: BindingDB's records for doi:10.1016/s0960-894x(02)00004-5 (Keio University, 2002)

Columns and labels:
[1] = target: alpha-L-fucosidase (Bos taurus); assay: The compound was tested for the inhibitory activity against alpha-L-Fucosidase in bovine kidney
[2] = target: alpha-L-fucosidase (Bos taurus); assay: as above; remark: listed apart in the source

Ki [1] | Ki [2] | SMILES
3 µM | 2.8 µM | CC1CC(O)(CN)C(O)C(O)C1O (stereo not drawn) [1-Aminomethyl-5-methyl-cyclohexane-1,2,3,4-tetraol]
 | 45 µM | CC1=CC(N)C(O)C(O)C1O (stereo not drawn) [6-Amino-4-methyl-cyclohex-4-ene-1,2,3-triol]
